Assay results taken from the NIST ThermoML archive (doi:10.1021/je800786k).
± gives the expanded uncertainty stated by the source.

Conditions: Liquid, Vibrating tube method

CCC(C)N (configuration not stated) [2-butanamine]
Conditions	mass density [kg/m3]
293.15 K, 100 kPa	725.3 ± 1.1
293.15 K, 10000 kPa	733.6 ± 1.1
293.15 K, 20000 kPa	741.2 ± 1.1
293.15 K, 30000 kPa	748.1 ± 1.1
293.15 K, 40000 kPa	754.5 ± 1.1
293.15 K, 50000 kPa	760.4 ± 1.2
293.15 K, 60000 kPa	766.1 ± 1.2
293.15 K, 70000 kPa	771.3 ± 1.2
293.15 K, 80000 kPa	776.3 ± 1.3
293.15 K, 90000 kPa	781.1 ± 1.3
293.15 K, 100000 kPa	785.5 ± 1.3
293.15 K, 110000 kPa	789.7 ± 1.4
293.15 K, 120000 kPa	793.9 ± 1.4
293.15 K, 130000 kPa	797.8 ± 1.4
293.15 K, 140000 kPa	801.5 ± 1.5
303.15 K, 100 kPa	715.1 ± 1.1
303.15 K, 10000 kPa	724.3 ± 1.1
303.15 K, 20000 kPa	732.4 ± 1.1
303.15 K, 30000 kPa	739.7 ± 1.1
303.15 K, 40000 kPa	746.3 ± 1.1
303.15 K, 50000 kPa	752.5 ± 1.2
303.15 K, 60000 kPa	758.3 ± 1.2
303.15 K, 70000 kPa	763.7 ± 1.2
303.15 K, 80000 kPa	768.9 ± 1.3
303.15 K, 90000 kPa	773.8 ± 1.3
303.15 K, 100000 kPa	778.4 ± 1.4
303.15 K, 110000 kPa	782.9 ± 1.4
303.15 K, 120000 kPa	787.2 ± 1.4
303.15 K, 130000 kPa	791.2 ± 1.5
303.15 K, 140000 kPa	795.2 ± 1.5
313.15 K, 100 kPa	705 ± 1.1
313.15 K, 10000 kPa	714.8 ± 1.1
313.15 K, 20000 kPa	723.4 ± 1.1
313.15 K, 30000 kPa	731.1 ± 1.1
313.15 K, 40000 kPa	738.2 ± 1.1
313.15 K, 50000 kPa	744.7 ± 1.2
313.15 K, 60000 kPa	750.8 ± 1.2
313.15 K, 70000 kPa	756.5 ± 1.3
313.15 K, 80000 kPa	761.9 ± 1.3
313.15 K, 90000 kPa	767 ± 1.3
313.15 K, 100000 kPa	771.8 ± 1.4
313.15 K, 110000 kPa	776.4 ± 1.4
313.15 K, 120000 kPa	780.8 ± 1.5
313.15 K, 130000 kPa	785.1 ± 1.5
313.15 K, 140000 kPa	789.1 ± 1.5
323.15 K, 100 kPa	694.7 ± 1.1
323.15 K, 10000 kPa	705.4 ± 1.1
323.15 K, 20000 kPa	714.5 ± 1.1
323.15 K, 30000 kPa	722.8 ± 1.1
323.15 K, 40000 kPa	730.4 ± 1.2
323.15 K, 50000 kPa	737.2 ± 1.2
323.15 K, 60000 kPa	743.6 ± 1.2
323.15 K, 70000 kPa	749.5 ± 1.3
323.15 K, 80000 kPa	755.2 ± 1.3
323.15 K, 90000 kPa	760.4 ± 1.3
323.15 K, 100000 kPa	765.4 ± 1.4
323.15 K, 110000 kPa	770.2 ± 1.4
323.15 K, 120000 kPa	774.7 ± 1.5
323.15 K, 130000 kPa	779 ± 1.5
323.15 K, 140000 kPa	783.2 ± 1.6
333.15 K, 10000 kPa	695.4 ± 1.1
333.15 K, 20000 kPa	705.2 ± 1.1
333.15 K, 30000 kPa	714 ± 1.1
333.15 K, 40000 kPa	722 ± 1.2
333.15 K, 50000 kPa	729.2 ± 1.2
333.15 K, 60000 kPa	735.8 ± 1.2
333.15 K, 70000 kPa	742.1 ± 1.3
333.15 K, 80000 kPa	748 ± 1.3
333.15 K, 90000 kPa	753.4 ± 1.4
333.15 K, 100000 kPa	758.6 ± 1.4
333.15 K, 110000 kPa	763.5 ± 1.5
333.15 K, 120000 kPa	768.1 ± 1.5
333.15 K, 130000 kPa	772.5 ± 1.5
333.15 K, 140000 kPa	776.9 ± 1.6
343.15 K, 10000 kPa	685.9 ± 1.1
343.15 K, 20000 kPa	696.6 ± 1.1
343.15 K, 30000 kPa	706 ± 1.2
343.15 K, 40000 kPa	714.3 ± 1.2
343.15 K, 50000 kPa	721.9 ± 1.2
343.15 K, 60000 kPa	728.8 ± 1.3
343.15 K, 70000 kPa	735.3 ± 1.3
343.15 K, 80000 kPa	741.3 ± 1.3
343.15 K, 90000 kPa	747.1 ± 1.4
343.15 K, 100000 kPa	752.4 ± 1.4
343.15 K, 110000 kPa	757.4 ± 1.5
343.15 K, 120000 kPa	762.3 ± 1.5
343.15 K, 130000 kPa	767 ± 1.6
343.15 K, 140000 kPa	771.3 ± 1.6
353.15 K, 10000 kPa	675.8 ± 1.1
353.15 K, 20000 kPa	687.1 ± 1.1
353.15 K, 30000 kPa	697.2 ± 1.2
353.15 K, 40000 kPa	705.8 ± 1.2
353.15 K, 50000 kPa	714 ± 1.2
353.15 K, 60000 kPa	721.2 ± 1.3
353.15 K, 70000 kPa	728 ± 1.3
353.15 K, 80000 kPa	734.2 ± 1.4
353.15 K, 90000 kPa	740.1 ± 1.4
353.15 K, 100000 kPa	745.7 ± 1.4
353.15 K, 110000 kPa	751 ± 1.5
353.15 K, 120000 kPa	756 ± 1.5
353.15 K, 130000 kPa	760.7 ± 1.6
353.15 K, 140000 kPa	765.3 ± 1.6
363.15 K, 10000 kPa	665.7 ± 1.2
363.15 K, 20000 kPa	678 ± 1.2
363.15 K, 30000 kPa	688.5 ± 1.2
363.15 K, 40000 kPa	697.8 ± 1.2
363.15 K, 50000 kPa	706.2 ± 1.2
363.15 K, 60000 kPa	713.9 ± 1.3
363.15 K, 70000 kPa	721 ± 1.3
363.15 K, 80000 kPa	727.5 ± 1.4
363.15 K, 90000 kPa	733.6 ± 1.4
363.15 K, 100000 kPa	739.4 ± 1.5
363.15 K, 110000 kPa	744.8 ± 1.5
363.15 K, 120000 kPa	749.9 ± 1.6
363.15 K, 130000 kPa	754.8 ± 1.6
363.15 K, 140000 kPa	759.5 ± 1.7
373.15 K, 10000 kPa	655.5 ± 1.2
373.15 K, 20000 kPa	668.9 ± 1.2
373.15 K, 30000 kPa	680.1 ± 1.2
373.15 K, 40000 kPa	690 ± 1.2
373.15 K, 50000 kPa	698.2 ± 1.3
373.15 K, 60000 kPa	707 ± 1.3
373.15 K, 70000 kPa	714 ± 1.3
373.15 K, 80000 kPa	720.9 ± 1.4
373.15 K, 90000 kPa	727.2 ± 1.4
373.15 K, 100000 kPa	733.2 ± 1.5
373.15 K, 110000 kPa	738.7 ± 1.5
373.15 K, 120000 kPa	744 ± 1.6
373.15 K, 130000 kPa	749.1 ± 1.6
373.15 K, 140000 kPa	753.9 ± 1.7
383.15 K, 10000 kPa	645.5 ± 1.2
383.15 K, 20000 kPa	659.9 ± 1.2
383.15 K, 30000 kPa	671.9 ± 1.2
383.15 K, 40000 kPa	682.3 ± 1.2
383.15 K, 50000 kPa	691.4 ± 1.3
383.15 K, 60000 kPa	699.6 ± 1.3
383.15 K, 70000 kPa	707.3 ± 1.4
383.15 K, 80000 kPa	714.4 ± 1.4
383.15 K, 90000 kPa	720.8 ± 1.5
383.15 K, 100000 kPa	726.9 ± 1.5
383.15 K, 110000 kPa	732.7 ± 1.6
383.15 K, 120000 kPa	738.2 ± 1.6
383.15 K, 130000 kPa	743.3 ± 1.7
383.15 K, 140000 kPa	748.2 ± 1.7
393.15 K, 10000 kPa	634.9 ± 1.2
393.15 K, 20000 kPa	650.5 ± 1.2
393.15 K, 30000 kPa	663.1 ± 1.2
393.15 K, 40000 kPa	674.3 ± 1.2
393.15 K, 50000 kPa	684.3 ± 1.3
393.15 K, 60000 kPa	693 ± 1.3
393.15 K, 70000 kPa	700.9 ± 1.4
393.15 K, 80000 kPa	708.2 ± 1.4
393.15 K, 90000 kPa	714.9 ± 1.5
393.15 K, 100000 kPa	721.2 ± 1.5
393.15 K, 110000 kPa	727.2 ± 1.6
393.15 K, 120000 kPa	732.8 ± 1.6
393.15 K, 130000 kPa	738.1 ± 1.7
393.15 K, 140000 kPa	742.9 ± 1.7
403.15 K, 10000 kPa	623.9 ± 1.2
403.15 K, 20000 kPa	640.6 ± 1.2
403.15 K, 30000 kPa	654.5 ± 1.2
403.15 K, 40000 kPa	666.1 ± 1.3
403.15 K, 50000 kPa	676.3 ± 1.3
403.15 K, 60000 kPa	685.3 ± 1.3
403.15 K, 70000 kPa	693.6 ± 1.4
403.15 K, 80000 kPa	701.1 ± 1.4
403.15 K, 90000 kPa	708.2 ± 1.5
403.15 K, 100000 kPa	714.9 ± 1.5
403.15 K, 110000 kPa	721.1 ± 1.6
403.15 K, 120000 kPa	726.9 ± 1.6
403.15 K, 130000 kPa	732.3 ± 1.7
403.15 K, 140000 kPa	737.4 ± 1.8
